Series [1] in a line: AlamarBlue cell viability assay, non-cancerous intestine FHs-74Int cells. The settings on record: human, FHs-74Int non-cancerous intestine cells, Human Cell Viability CC50 Intestine (FHs 74Int), non-cancerous intestine cells, AlamarBlue, 48 h. For orientation: Alamar Blue is a resazurin reagent that responds to reducing activity.
The next series has as its target T1, GroEL/ES (Escherichia coli, UniProt P0A6F5).
T1 construct: made in house; host or cells: NEB 5-alpha E. coli for GroEL; E. coli BL21 (DE3) for GroES
In words: GroEL/ES-dMDH refolding assay. It counts as biochemical, E. coli.

The next series addresses T2, mHSP60/10 (Homo sapiens, UniProt P10809).
T2 construct: Processed human HSP60 (mHSP60—that would be in mitochondria) was expressed in Rosetta™ 2 (DE3) E. coli; octa-Histidine tag (TEV-cleavable) (N, cleaved yes); made in house; host or cells: E. coli Rosetta 2 (DE3) for mHSP60; Rosetta 2 (DE3) pLysS for HSP10
In words: mHSP60/10-mediated dMDH refolding assay. It counts as biochemical.

The subject of a further series is HT-29 cells. In words: AlamarBlue cell viability assay, HT-29 colon cancer cells. The class given is cell-based. The settings on record: Homo sapiens, 48 h with compound, ^BP = curve baseline plateaued between ~10-20%.
A further series concerns HCT-116 cells. In words: AlamarBlue cell viability assay, HCT-116 colon cancer cells. It counts as cell-based, human. The settings on record: for Average Selectivity Index: CC50 non-cancer cells (FHC, FHs 74Int) compared to EC50 HCT-116; for EC50: read-out: Human Cell Viability EC50 Colon Cancer (HCT 116).
A further series deals with DLD-1 cells. In words: AlamarBlue cell viability assay, DLD-1 colon cancer cells. The following applies: Homo sapiens, 48 h with compound, ^BP = curve baseline plateaued between ~10-20%, read-out: Human Cell Viability EC50 Colon Cancer (DLD1). The class given is cell-based.
Series [2] can be described thus: AlamarBlue cell viability assay, non-cancerous colon FHC cells. The following applies: human, FHC non-cancerous colon cells, Human Cell Viability CC50 Colon (FHC), non-cancerous colon cells, AlamarBlue, 48 h.
Series [3] concerns NCI-60 cancer cell panel. In words: NCI-60 panel single-dose cell growth screen. The class given is cell-based. The settings on record: single dose 10 μM; 0 = cytostatic, -100% = cytocidal, +100% = growth. As to the method: FIGS. 10A-10J show cell growth results for 10 lead candidate inhibitors (compound 162, FIG. 10A; compound 163, FIG. 10B; compound 164, FIG. 10C; compound 4, FIG. 10D; compound 165, FIG. 10E; compound 139, FIG. 10F; compound 132, FIG. 10G; compound 143, FIG. 10H; compound 147, FIG. 10I; compound 128, FIG. 10J) tested at 10 μM against the NCI cancer cell panel. Zero indicates no cells growth/death from what was initially plated (cytostatic inhibition). −100% indicates […] (cytocidal inhibition). +100% indicates cell growth.
In a previous study evaluating the anti-cancer effects of ABK inhibitors, the National Cancer Institute (NCI) database was explored for existing cytotoxicity results for any compounds bearing α,β-unsaturated ketone moieties against the comprehensive NCI-60 cancer cell panel. […] The HQ-NAH and NF-NAH inhibitor library was explored based on the similarity to Nifuroxazide's scaffold. […] Initial screening was performed at a single concentration of 10 μM, and cell growth results are presented in aggregate based on cancer cell origin (FIGS. 10A-10J).

For series [4], the system named is NCI-60 cancer cell panel. In words: NCI-60 panel dose-response cell growth testing. It counts as cell-based. The settings on record: follow-up dose response, range across NCI-60 cell lines. The text has this: FIGS. 11A-11G show cell growth results in dose-response for 7 lead candidate inhibitors (compound 162, FIG. 11A; compound 164, FIG. 11B; compound 128, FIG. 11C compound 165, FIG. 11D; compound 139, FIG. 11E; compound 143, FIG. 11F; compound 147, FIG. 11G) from initial single-dose NCI-60 screen.
Therefore, they appeared to act in a cytocidal manner.

Where [5] appears, read: denatured malate dehydrogenase client, read-out: IC50 mHSP60/10-dMDH refolding.
Setting [6] is: Homo sapiens, HCT-116, 48 h, AlamarBlue, 48 h with compound.

Each structure is given as a SMILES string. Like-named read-outs stand apart in the source and are kept apart here.

This is an account of results in patent US20250319056A1, “METHODS FOR TREATING CANCER” (THE TRUSTEES OF INDIANA UNIVERSITY, priority 2024, published 2025).

T2 sequence (P10809 27-573): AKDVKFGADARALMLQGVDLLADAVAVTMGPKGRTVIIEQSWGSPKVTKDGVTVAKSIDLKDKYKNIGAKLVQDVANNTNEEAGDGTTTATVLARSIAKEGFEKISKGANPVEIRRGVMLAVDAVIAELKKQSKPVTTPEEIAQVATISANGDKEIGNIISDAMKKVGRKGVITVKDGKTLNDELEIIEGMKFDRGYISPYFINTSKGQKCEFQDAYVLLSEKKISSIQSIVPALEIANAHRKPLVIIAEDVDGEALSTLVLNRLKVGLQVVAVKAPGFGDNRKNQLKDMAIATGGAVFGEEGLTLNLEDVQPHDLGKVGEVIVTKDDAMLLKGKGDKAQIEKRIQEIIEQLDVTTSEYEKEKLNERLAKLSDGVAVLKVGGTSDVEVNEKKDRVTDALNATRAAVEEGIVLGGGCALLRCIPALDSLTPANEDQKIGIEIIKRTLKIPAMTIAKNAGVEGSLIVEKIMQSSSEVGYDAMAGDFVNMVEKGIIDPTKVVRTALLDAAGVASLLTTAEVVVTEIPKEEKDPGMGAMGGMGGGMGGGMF
T1 sequence (P0A6F5 2-548): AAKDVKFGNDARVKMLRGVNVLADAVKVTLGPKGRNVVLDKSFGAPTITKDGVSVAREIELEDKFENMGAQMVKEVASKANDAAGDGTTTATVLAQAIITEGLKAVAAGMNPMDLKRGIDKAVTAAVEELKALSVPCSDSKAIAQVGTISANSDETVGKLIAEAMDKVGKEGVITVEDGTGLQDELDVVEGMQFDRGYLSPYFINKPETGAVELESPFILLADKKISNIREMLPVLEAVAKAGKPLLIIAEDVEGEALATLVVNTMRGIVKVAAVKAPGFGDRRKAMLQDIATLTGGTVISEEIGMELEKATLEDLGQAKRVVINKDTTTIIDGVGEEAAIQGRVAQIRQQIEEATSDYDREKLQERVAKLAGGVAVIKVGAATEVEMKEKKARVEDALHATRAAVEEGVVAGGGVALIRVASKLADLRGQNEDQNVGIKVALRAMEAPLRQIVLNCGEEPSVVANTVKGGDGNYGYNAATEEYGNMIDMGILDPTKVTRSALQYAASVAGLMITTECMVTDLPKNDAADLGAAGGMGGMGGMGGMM

As to `Oc1cccc(C(Nc2nccs2)c2ccc3cccnc3c2O)c1` (stereo not drawn) [Compound 90], the CC50 (in general, the concentration at which the toxic effect on the cells reaches its halfway point) at 48 h stood at 64.6 µM in series [1] and 66.6 µM in series [2]. Further, the IC50 against GroEL/ES and at mHSP60/10 (setting [5]) was 0.8 to 9 µM each time. For the same molecule, the results for the EC50 with HT-29 cells, in the series on HCT-116 cells (setting [6]) and with DLD-1 cells were 8.3 µM, 2.5 µM and 15 µM, respectively. In addition, the “Average Selectivity Index” value in the series with HCT-116 cells was determined as 26.2.
Regarding `COc1ccccc1S(=O)(=O)Nc1ccc(-c2nc3cc(NS(=O)(=O)c4ccccc4OC)ccc3o2)cc1` [Compound 164, 2-methoxy-N-(4-(5-((2-methoxyphenyl)sulfonamido)benzo[d]oxazol-2-yl)phenyl)benzenesulfonamide], the “cell growth % NCI cancer cell panel” value with NCI-60 cancer cell panel [3] is listed as “around 0%”. Further, in the series with NCI-60 cancer cell panel [4], the GI50 (as a rule, the concentration that inhibits growth by half) is 1 to 5 µM.
With `Cc1ccc(S(=O)(=O)Nc2ccc(-c3nc4cc(NS(=O)(=O)c5ccc(C)cc5)ccc4o3)cc2)cc1` [Compound 162, 4-methyl-N-(4-(5-((4-methylphenyl)sulfonamido)benzo[d]oxazol-2-yl)phenyl)benzenesulfonamide], the “cell growth % NCI cancer cell panel” value in the series with NCI-60 cancer cell panel [3] is “negative % growth”. The molecule also had a GI50 in the series with NCI-60 cancer cell panel [4] of 1 to 5 µM.
As to `Oc1c(Cl)cc(Cl)c(Cl)c1Cc1c(O)c(Cl)cc(Cl)c1Cl` [Compound 32, Hexachlorophene, reference compound], the IC50 against GroEL/ES and against mHSP60/10 was 0.8 to 9 µM each time. Besides, the EC50 – broadly, the midpoint of the concentration-response curve – with HCT-116 cells (Homo sapiens, HCT-116, 48 h) is 4.6 µM.
On to `COc1ccc(C(=O)N/N=C/c2cccc3ccccc23)cc1` [Compound 152], for which the 50% cytotoxic concentration (CC50) with FHC cells and in the series with FHs-74Int cells was above 100 µM in each case.
For the molecule `COc1ccc(C(=O)N/N=C/c2ccc(O)cc2)cc1` [Compound 154], the CC50 in the series on FHC cells and in the series on FHs-74Int cells was above 100 µM throughout.
In the case of `O=C(/C=C/c1cccc([N+](=O)[O-])c1)c1ccc(NC(=O)c2ccco2)cc1` [Compound 4, (E)-N-(4-(3-(3-nitrophenyl)acryloyl)phenyl)furan-2-carboxamide], the figures for the CC50 at 48 h in [1] and in [2] were 54 µM and above 100 µM, respectively. Also, the IC50 at GroEL/ES and at mHSP60/10 (setting [5]) was 0.8 to 9 µM in each case. Moreover, the “cell growth % NCI cancer cell panel” value with NCI-60 cancer cell panel [3] is “largely inactive”. Moreover, the results for the EC50 in the series with HT-29 cells, in the series on HCT-116 cells (setting [6]) and with DLD-1 cells were 3.6 µM, 4 µM and 39.7 µM, respectively. Also, the “Average Selectivity Index” value in the series on HCT-116 cells came to 19.1.
`CCCCCOc1ccc(/C=C2\Oc3c(ccc(O)c3O)C2=O)c(O)c1` [Compound 86]: the CC50 at 48 h in series [1] and in series [2] was above 100 µM each time. The IC50 against GroEL/ES and on mHSP60/10 (setting [5]) was 0.8 to 9 µM throughout. For the same molecule, the EC50 amounted to 5.9 µM with HT-29 cells, 12.5 µM in the series with HCT-116 cells (setting [6]) and 23 µM with DLD-1 cells. In the series on HCT-116 cells, the “Average Selectivity Index” value is 8.0.
Take `O=C(N/N=C/c1ccc(O)cc1)c1ccccc1` [Compound 155]: the CC50 in the series with FHC cells and with FHs-74Int cells was above 100 µM throughout.
For `O=C(N/N=C/c1ccc(O)c2ccccc12)c1ccccc1` [Compound 149], the half-maximal cytotoxic concentration (CC50) with FHC cells and in the series on FHs-74Int cells was above 100 µM in each case.
`COc1ccc(C(=O)N/N=C/c2ccc(O)c3ccccc23)cc1` [Compound 148]: the CC50 with FHC cells and in the series on FHs-74Int cells was above 100 µM throughout.
In the case of `O=C(N/N=C/c1cccc2ccccc12)c1ccccc1` [Compound 153], the CC50 with FHC cells was at least 100 µM; in the series on FHs-74Int cells, above 100 µM.
For `O=C(N/N=C/c1cccc2ncccc12)c1ccccc1` [Compound 151] the same measures were above 100 µM and above 100 µM.
For `O=C(N/N=C/c1ccccc1)c1ccccc1` [Compound 157] the same measures were above 100 µM and above 100 µM.
Take `COc1ccc(-c2ccc3cc(C(=O)O)ccc3c2)cc1C12CC3CC(CC(C3)C1)C2` [Compound 25, Adapalene, reference compound]: the CC50 at 48 h in series [1] was 18.5 µM; in series [2] it was 43.7 µM. For the same molecule, the IC50 at GroEL/ES and at mHSP60/10 (setting [5]) was 0.8 to 9 µM in each case. Further, the EC50 with HT-29 cells turned out to be 5.3 µM; in the series with HCT-116 cells (setting [6]) it was 5.8 µM; in the series with DLD-1 cells, 7.9 µM. Further, the “Average Selectivity Index” value in the series with HCT-116 cells was found to be 5.4.
As for `COc1ccc(C(=O)N/N=C/c2ccccc2)cc1` [Compound 156], the CC50 in the series on FHC cells and with FHs-74Int cells was above 100 µM throughout.
As for `CCN(CC)S(=O)(=O)c1cccc(C(=O)N/N=C/c2ccc(O)c3ncccc23)c1` [Compound 144], the CC50 at 48 h in [1] is 59 µM; in series [2] it was 34 µM. For the same molecule, the 50% effective concentration (EC50) was 4.4 µM in the series with HT-29 cells, 4.9 µM in the series with HCT-116 cells (setting [6]) and 1.3 µM with DLD-1 cells. Further, the “Average Selectivity Index” value with HCT-116 cells is 9.5.
As for `O=C(N/N=C/c1ccc(O)c2ncccc12)c1ccccc1Oc1ccccc1` [Compound 142], the CC50 at 48 h in series [1] was determined as 87 µM; in series [2], 71 µM. In addition, the values for the EC50 with HT-29 cells, in the series on HCT-116 cells (setting [6]) and in the series on DLD-1 cells were 3.7 µM, 6.3 µM and 1.6 µM, respectively. The “Average Selectivity Index” value in the series with HCT-116 cells came out at 13.
Turning to `CN(C)c1ccc(C(=O)N/N=C/c2ccc([N+](=O)[O-])o2)cc1` [Compound 125], the CC50 at 48 h in series [1] and in series [2] was above 100 µM each time. In addition, the EC50 with HT-29 cells is 0.29 µM; in the series on HCT-116 cells (setting [6]), 8.5 µM; in the series with DLD-1 cells, above 100 µM. Moreover, the “Average Selectivity Index” value in the series on HCT-116 cells is 11.8.
Turning to `O=C(N/N=C/c1ccc([N+](=O)[O-])o1)c1ccc(Cl)s1` [Compound 121], the results for the CC50 at 48 h in series [1] and in series [2] were 49 µM and 51 µM, respectively. Also, the results for the EC50 in the series on HT-29 cells, with HCT-116 cells (setting [6]) and in the series on DLD-1 cells were 5.7 µM, 8.2 µM and 8 µM, respectively. For the same molecule, the “Average Selectivity Index” value with HCT-116 cells is 6.2.
As for `COc1ccc(C(=O)N/N=C/c2cccc3ncccc23)cc1` [Compound 150], the CC50 with FHC cells and in the series on FHs-74Int cells was above 100 µM throughout.
Regarding `CN(C)c1ccc(C(=C2C=CC(=[N+](C)C)C=C2)c2ccc(N(C)C)cc2)cc1` [Compound 56, Crystal Violet, reference compound], the figures for the CC50 at 48 h in [1] and in [2] were 1.6 µM and 8.6 µM, respectively. The IC50 on GroEL/ES and at mHSP60/10 (setting [5]) was 0.8 to 9 µM each time. The EC50 is 0.1 µM in the series on HT-29 cells; 0.5 µM in the series on HCT-116 cells (AlamarBlue, 48 h with compound); 0.54 µM in the series with HCT-116 cells (setting [6]); 0.2 µM in the series with DLD-1 cells. The “Average Selectivity Index” value in the series with HCT-116 cells worked out at 9.4.
On to `O=C(N/N=C/c1ccc(O)c2ncccc12)c1ccc(Cl)s1` [Compound 136], for which the CC50 at 48 h in [1] amounted to 42 µM; in series [2], 25 µM. The EC50 is 3.2 µM in the series on HT-29 cells, 3.8 µM in the series on HCT-116 cells (setting [6]) and 3.9 µM in the series with DLD-1 cells. Moreover, the “Average Selectivity Index” value in the series with HCT-116 cells was 8.8.
Turning to `CCN(CC)S(=O)(=O)c1cccc(C(=O)N/N=C/c2ccc([N+](=O)[O-])o2)c1` [Compound 129], the CC50 at 48 h in series [1] is 8.7 µM; in [2], above 100 µM. Also, the results for the EC50 with HT-29 cells, with HCT-116 cells (setting [6]) and in the series with DLD-1 cells were 4.2 µM, 7.8 µM and 8.9 µM, respectively. In the series with HCT-116 cells, the “Average Selectivity Index” value came out at 12.0.
As to `O=C(N/N=C/c1ccc(O)c2ncccc12)c1ccccc1` [Compound 137], the cytotoxic concentration (CC50) at 48 h in series [1] stood at 57 µM; in series [2] it was 74 µM. The results for the EC50 in the series on HT-29 cells, in the series with HCT-116 cells (setting [6]) and in the series on DLD-1 cells were 2.5 µM, 6.1 µM and 2.8 µM, respectively. Moreover, the “Average Selectivity Index” value with HCT-116 cells was determined as 11.
